According to patent publication US11136297B2, “Compositions and methods for treating cancer” (THE REGENTS OF THE UNIVERSITY OF CALIFORNIA, priority 2016, dated 2021):
Each block holds one compound with its values, some of them ahead of it.

Tests used:
K-Ras(M72C) GDP = target: T1, K-Ras(M72C) GDP (Homo sapiens, UniProt P01116, M72C); experiment: βME50 determination of tethering fragments; format: binding; conditions: relative to 2C07
T1 construct: Untagged recombinant 1-169 K-Ras(M72C) GDP; His6 (cleaved yes); made in house; host or cells: Escherichia coli BL21(DE3)
Description: (§1) A tethering library of 960 disulfides were screened against 1-169 K-Ras(M72C) GDP using intact protein mass spectrometry to monitor percent modification (See Methods, and FIG. 37). […] To better prioritize tethering fragments, a βME50 value (the concentration of βME needed to reduce disulfide fragment modification to 50%) was determined for each compound. A higher βME50 value corresponds to a better fragment as it can bind with increasing concentrations of competitive thiol (Erlanson et al., 2004; Yang et al., 2009).
We next explored small chemical modifications to 2C07.

[1] = target: T2, H-Ras(M72C) bound to either GDP or GppNHp (Homo sapiens, UniProt P01112, M72C); experiment: Electrophile labeling experiments (percent modification by whole protein LC/MS); format: binding; conditions: 4 μM H-Ras(M72C) GDP or GppNHp, 100 μM electrophile, 24 hours
T2 construct: Labeling studies were conducted using the 1-166 H-Ras(M72C) construct containing all endogenous cysteines; His6; made in house; host or cells: Escherichia coli BL21(DE3)
Description: Electrophile Labeling Experiments.
Each reaction was analyzed in a 96 well plate format for analysis by LC/MS. Total reaction volumes were 25 μL for single time point labeling experiments and 200 uL for full 24-hour time courses. 25 μL reactions were made in the wells of a V-bottom 96 well plate and 200 uL reactions were made in 1.25 mL eppendorf tubes. All labeling reactions were conducted in Gel Filtration Buffer (20 mM HEPES (pH 7.5), 150 mM NaCl) with no added reductant at room temperature. […] Electrophile stocks were made in DMSO at 10 mM, aliquoted, and frozen. Labeling reactions were started by the addition of the desired volume of 10 mM electrophile stock and mixed thoroughly by pipette. General screening of new electrophiles was done at 100 μM electrophile in triplicate and sampled as a single time point after 24 hours of incubation. For Compound 3, labeling time courses were conducted at 20 μM compound with sampling done every 2 hours for the first 10 hours of incubation and continued after overnight incubation until the protein was fully modified. Reactions were allowed to sit at room temperature in the dark (either covered in aluminum foil or in a bench drawer) until the desired time point was reached. For 24-hour single point labeling experiments, the reaction was directly sampled from the 96 well plate and analyzed by LC/MS. For experiments with multiple time points, 22.5 μL aliquots of the 200 μL master reaction were sampled and quenched by the addition of 2.5 μL of 2% formic acid (also made in Gel Filtration Buffer). This 25 μL quenched sample was then analyzed by LC/MS and the remaining master reaction was allowed to continue reacting after gentle mixing by pipette. The percent modification was analyzed by electrospray mass spectrometry using a Waters Acquity UPLC/ESI-TQD with a 2.1×50 mm Acquity UPLC BEH300 C4 column.

WT H-Ras = target: T3, WT H-Ras (Homo sapiens, UniProt P01112); experiment: BioLayer interferometry (BLI) reversible binding
T3 construct: made in house; host or cells: Escherichia coli BL21(DE3)

H-Ras(M72C) GDP = H-Ras(M72C) GDP (Homo sapiens, UniProt P01112, M72C); experiment: Competition labeling experiments (Compound 3 vs Compound 4); format: binding; design: Labeling studies were conducted using the 1-166 H-Ras(M72C) construct containing all endogenous cysteines; His6; made in house; host or cells: Escherichia coli BL21(DE3); conditions: 20 μM Compound 3, varying Compound 4 (0-180), 4 μM H-Ras(M72C) GDP
Description: Competition Labeling Experiments.
[…] were made in Gel Filtration buffer (20 mM HEPES (pH 7.5), 150 mM NaCl) with no added reductant at room temperature. The final concentrations of each reagent were as follows: […], 1 mM MgCl2, […], X mM Compound 4, and a total DMSO concentration of 4% by volume. Compound 4 was varied from OX (0 mM), 1× (20 mM), 3× (60 mM), and 9× (180 mM) respectively. Adding the desired volume of Gel Filtration Buffer, MgCl2, DMSO, and 10 mM compound stocks of Compounds 3 and 4 was done first and mixed thoroughly before protein was added. Reactions were started by the addition and gentle mixing by pipette of concentrated Ras stocks diluted into the master reaction down to […]. Each reaction was set in triplicate and allowed to react at room temperature in the dark (either covered in aluminum foil or in a bench drawer) until the desired time point was reached. At each time point, […] aliquots of each 200 mL master reaction was sampled and quenched by the addition of […] of 2% formic acid (also made in Gel Filtration Buffer). This 25 mL quenched sample was then analyzed by LC/MS and the remaining master reaction was allowed to continue reacting after gentle mixing by pipette. The percent modification was analyzed by electrospray mass spectrometry using a Waters Acquity UPLC/ESI-TQD with a 2.1×50 mm Acquity UPLC BEH300 C4 column.

1-169 K-Ras(M72C) GDP = target: T4, 1-169 K-Ras(M72C) GDP (Homo sapiens, UniProt P01116, M72C); experiment: Disulfide tethering screen, percent modification by intact protein mass spectrometry; format: binding; conditions: screening βME 1 mM
T4 construct: Untagged recombinant 1-169 K-Ras(M72C) GDP; His6 (cleaved yes); made in house; host or cells: Escherichia coli BL21(DE3)
Description: In some embodiments, a library of disulfide compounds may be screened against a cysteine-containing protein in the presence of a reducing agent such as β-mercaptoethanol (BME). Compounds with complementary binding contacts with a region of the protein near the cysteine may shift the disulfide exchange equilibrium away from BME modification of the cysteine thiol and enhance the ratio of the hit ligand bound to the cysteine. The resulting mass change of the protein can be readily detected by mass spectrometry, and the percentage of modified protein can be used as a measure of potency. Compounds which exchange with the cysteine without conferring affinity should exchange with reducing agent equally well and will not shift the equilibrium toward protein modification. The potency of various compounds at a given concentration of BME may be compared by calculating the dose-response 50 (DR50), which is the concentration of compound at which the protein becomes 50% modified.
as §1, with “A higher βME50 value corresponds to a better fragment as it can bind with increasing concentrations of competitive thiol (Erlanson et al., 2004; Yang et al., 2009).” left out

[2] = target: T5, full-length wild-type K-Ras (Homo sapiens, UniProt P01116); experiment: Disulfide fragment labeling of full-length wild-type K-Ras (Cys 72 selectivity); format: binding; conditions: wild-type K-Ras contains 4 native cysteine residues
T5 construct: His6; made in house; host or cells: Escherichia coli BL21(DE3)

H-Ras(M72C) GppNHp = H-Ras(M72C) GppNHp (Homo sapiens, UniProt P01112, M72C); experiment: βME50 and percent labeling of tethering fragments, GppNHp state; format: binding; design: Labeling studies were conducted using the 1-166 H-Ras(M72C) construct containing all endogenous cysteines; His6; made in house; host or cells: Escherichia coli BL21(DE3); conditions: disulfide tethering at Cys 72
Description: FIG. 32. […] Percent labeling against H-Ras(M72C) GDP and GppNHp at the screening βME concentration (1 mM) are graphed.
as §1

[3] = target: T6, H-Ras(M72C) GppNHp binding to Raf-1-RBD (Homo sapiens, UniProt P01112, M72C); experiment: Raf-1-RBD pull-down of labeled H-Ras(M72C) GppNHp; conditions: H-Ras(M72C) GppNHp pre-labeled with compound; various concentrations of H-Ras
T6 construct: and H-Ras (residues 1-166) were transformed into Escherichia coli; His6; made in house; host or cells: Escherichia coli BL21(DE3)
Description: FIGS. 29A-29D. […] FIG. 29D: Reconstruction of Ras cycle is achieved by inducing nucleotide exchange of 100 nM Ras by various concentrations of SOS^cat for either 1 or 2 hours and subsequent pull-down by Raf-1-RBD.
FIGS. 33A-33D. […] In FIG. 33B) through FIG. 33D), normalized pull-down signals are shown below the blot. S. E. M for each signal, number of replicates, and […] for each comparative Standard T-Test are summarized herein (see Tables 33B, 33C, and 33D). […] Comparative statistics were done for normalized pull-down signals between protein constructs of the same condition (i.e. in FIG. 33B) and FIG. 33C), column 1 for unlabeled and 1 for labeled protein, 2 for unlabeled and 2 for labeled, and so on were statistically compared, and in FIG. 33D) only the +SOS^cat and +GppNHp lanes were compared across protein constructs). FIG. 33A) Cartoon representation of pull down protocol. […] Reported values are quantified pull-down signals normalized to input. FIG. 33B) Cartoon representation of pull down protocol. […] FIG. 33C) Cartoon representation of pull down protocol. […] FIG. 33D) Cartoon representation of pull down protocol. Ras activation is achieved by catalyzing nucleotide exchange by SOS^cat and indirectly reading out activated Ras by subsequent pull down by Raf-1-RBD.

[4] = target: T6, H-Ras(M72C) GppNHp binding to Raf-1-RBD; experiment: Ras GppNHp in vitro pull down by His6-MBP-Raf-1-RBD; conditions: H-Ras(M72C) pre-labeled with compound
Description: Ras GppNHp In Vitro Pull Down Assay by His6-MBP-Raf-1-RBD. For each His6-MBP-Raf-1-RBD in vitro pull down the total volume was 500 μL. Each reaction had the following final composition: Either 20, 80, 200, 400, or 800 nM Ras GppNHp (from 0.2 mg/mL Ras stock), 75 nM BSA (2.5 μg, 5 μL of 0.5 mg/mL BSA stock), 200 nM of His6-MBP-Raf-1-RBD (5.3 μg, 1.2 μL of 4.38 mg/mL stock of His6-MBP-Raf-1-RBDwitt), and Raf Pull Down Buffer to volume (25 mM Tris (pH 7.2), 150 mM NaCl, 5 mM MgCl2, 1% NP-40, 5% glycerol, 20 mM imidazole). Samples were then mixed by gentle rotation at 4° C. for 30 min. While equilibrating, add 50 μL Ni-NTA slurry (Qiagen) to a cellulose acetate spin cup and spin at 5,000 rpm on a tabletop centrifuge for 30 seconds. Wash the beads with 400 μL of Raf Pull Down Buffer to wash away bead storage buffer. Before adding each pull down solution, take 10 μL and save as a loading control sample. To each spin cup filled with washed Ni-NTA beads, add the remaining equilibrated pull down solution, seal the spin cup with parafilm and let rotate at 4° C. for 30 more minutes. After mixing, centrifuge the sample for 30 seconds at 5,000 rpm. Toss flow through. Wash the beads X 5 with 400 μL of Raf Pull Down Buffer. After last wash, centrifuge one last time to remove any excess buffer stuck to the beads. […] Blots were read out using LICOR compatible secondary antibodies. […]

Structure (SMILES): C=CC(=O)Nc1ccc(NC(=O)c2cnn(-c3ccc(OC)cc3)c2C(F)(F)F)cc1 [Compound 1, N-(4-acrylamidophenyl)-1-(4-methoxyphenyl)-5-(trifluoromethyl)-1H-pyrazole-4-carboxamide]
- Percent modification (labeling of Cys 72) [1]: no detectable labeling

Structure (SMILES): COc1ccc(-n2cc(C(=O)NCCCSSCCN(C)C)cn2)cc1 [Compound 2C07c, N-(3-((2-(dimethylamino)ethyl)disulfanyl)propyl)-1-(4-methoxyphenyl)-1H-pyrazole-4-carboxamide]
- change in βME50 (K-Ras(M72C) GDP): drastic decrease

Structure (SMILES): CN(C)CCSSCCCNC(=O)C(=O)c1c[nH]c2ccccc12 [Compound 2B02, N-(3-((2-(dimethylamino)ethyl)disulfanyl)propyl)-2-(1H-indol-3-yl)-2-oxoacetamide]
- percent modification (1-169 K-Ras(M72C) GDP): 52.8%
- modification of full-length wild-type K-Ras [2]: did not modify
- labeling of H-Ras(M72C) GppNHp (H-Ras(M72C) GppNHp): labeled

Structure (SMILES): C=CC(=O)Nc1cccc(NC(=O)c2cnn(-c3ccc(OC)cc3)c2C(F)(F)F)c1 [Compound 2, N-(3-acrylamidophenyl)-1-(4-methoxyphenyl)-5-(trifluoromethyl)-1H-pyrazole-4-carboxamide]
- Raf-1-RBD binding [3]: do not inhibit Raf RBD binding
- Raf-1-RBD binding (pull down), labeled vs unlabeled H-Ras(M72C) [4]: did not inhibit Raf-1-RBD binding
- Percent modification (labeling of Cys 72) [1]: significant increase

Second part, the compound after the results:

- change in βME50 (K-Ras(M72C) GDP): small decrease
Structure (SMILES): COc1ccc(-n2ncc(C(=O)NCCCCSSCCN(C)C)c2C(F)(F)F)cc1 [Compound 2C07b, N-(4-((2-(dimethylamino)ethyl)disulfanyl)butyl)-1-(4-methoxyphenyl)-5-(trifluoromethyl)-1H-pyrazole-4-carboxamide]

- reversible binding by BLI (WT H-Ras): unable to detect measurable binding
- rate of Compound 3 labeling (% labeled per hour) in presence of Compound 4 (H-Ras(M72C) GDP): dose dependent decrease
- rate of Compound 3 labeling (% labeled per hour) in presence of Compound 4 (H-Ras(M72C) GDP; listed as compound 4): dose-dependent decrease
Structure (SMILES): CCC(=O)Nc1cc(Cl)cc(NC(=O)c2cnn(-c3ccc(OC)cc3)c2C(F)(F)F)c1 [Compound 4, N-(3-chloro-5-propionamidophenyl)-1-(4-methoxyphenyl)-5-(trifluoromethyl)-1H-pyrazole-4-carboxamide]
